Read-outs that look alike come from different tables or passages of the source.
How the values were obtained:
[1] = test system: K562 (chronic myelogenous leukemia; leukemia cell line +ve for Bcr-Abl); test: Cytotoxicity assay, K562 tumor cells; type: cell-based; conditions: Homo sapiens, K562, 96 h treatment
Description: (§1) The effect of the compounds of the invention on tumor cells was determined by the assay described by Latham et al., Oncogene 12:827-837 (1996). Tumor cells K562 (chronic myelogenous leukemia; leukemia cell line +ve for Bcr-Abl) or DU145 (prostate cancer) were plated in 12-well dishes at a cell density of 2.5×10^4 cells well. The plated cells were treated 24 hours later with a compound of the invention dissolved in DMSO at multiple concentrations ranging from 0.01 μM to 100 μM. The plates were examined 96 hours later under an inverted microscope, Olympus CK-2 using a 10× objective, and compound activity was noted by physical observation. When necessary, the total number of viable cells was determined by trypsinizing the wells and counting the number of viable cells, as determined by trypan blue exclusion, using a hemacytometer. Where “Lower” and “Upper” value are provided in Table 5, the IC50 was determined to be within that range. When only a “Lower” value is provided and no “Upper” value is listed, the IC50 was that value, or less than or greater than that value, as set forth in the Table.
(§2) The cytotoxicity of Compound 42, (Z)-6-((2,6-dichlorobenzyl)sulfonyl)-2-(4-hydroxy-3-nitrobenzylidene)-2H-benzo[b][1,4]thiazin-3(4H)-one, was determined according the assay method of Example 7 on the prostate (androgen dependent or independent), breast and pancreatic cancer cell lines listed in Table 6A, below, and the additional cell lines listed in Table 6B, below. The human mesenchymal stem cell line HMSC.hTERT and normal human fibroblast cell line HFL was included in the test.

DU145 (prostate cancer) = test: Cytotoxicity assay, DU145 tumor cells; type: cell-based; conditions: Homo sapiens, DU-145, 96 h treatment
Description: as §1, §2

[2] = lower limit of the IC50 range, or the IC50 itself (or its bound) where no Upper value is listed, read-out: K562 IC50 (μm) Lower (μm)
[3] = upper limit of the IC50 range, read-out: K562 IC50 (μm) Upper (μm)
[4] = lower limit of the IC50 range, or the IC50 itself (or its bound) where no Upper value is listed, read-out: DU145 IC50 (μm) Lower (μm)
[5] = upper limit of the IC50 range, read-out: DU145 IC50 (μm) Upper (μm)

Row | SMILES | IC50 [1, 2] [nM] | IC50 [1, 3] [nM] | IC50 (DU145 (prostate cancer); [4]) [nM] | IC50 (DU145 (prostate cancer); [5]) [nM]
1 | O=C1Nc2cc(S(=O)(=O)Cc3c(Cl)cccc3Cl)ccc2S/C1=C\c1ccc([N+](=O)[O-])cc1 [Compound 14, (Z)-6-((2,6-dichlorobenzyl)sulfonyl)-2-(4-nitrobenzylidene)-2H-benzo[b][1,4]thiazin-3(4H)-one] | ≥ 1000 | ≤ 10000 | ≥ 1000 | ≤ 10000
2 | COC(=O)c1ccc(/C=C2\Sc3ccc(S(=O)(=O)Cc4c(Cl)cccc4Cl)cc3NC2=O)cc1 [Compound 32, (Z)-methyl 4-((6-((2,6-dichlorobenzyl)sulfonyl)-3-oxo-3,4-dihydro-2H-benzo[b][1,4]thiazin-2-ylidene)methyl)benzoate] | ≥ 1000 | ≤ 10000 | ≥ 500 | ≤ 1000
3 | COc1ccc(/C=C2\Sc3ccc(S(=O)(=O)Cc4c(Cl)cccc4Cl)cc3NC2=O)cc1N [Compound 12, (Z)-2-(3-amino-4-methoxybenzylidene)-6-((2,6-dichlorobenzyl)sulfonyl)-2H-benzo[b][1,4]thiazin-3(4H)-one] | ≥ 100 | ≤ 250 | ≥ 250 | ≤ 500
4 | Nc1ccc(/C=C2\Sc3ccc(S(=O)(=O)Cc4c(Cl)cccc4Cl)cc3NC2=O)cc1 [Compound 15, (Z)-2-(4-aminobenzylidene)-6-((2,6-dichlorobenzyl)sulfonyl)-2H-benzo[b][1,4]thiazin-3(4H)-one] | 30 |  | 40 | 
5 | CSc1nccc(/C=C2\Sc3ccc(S(=O)(=O)Cc4c(Cl)cccc4Cl)cc3NC2=O)n1 [Compound 36, (Z)-6-((2,6-dichlorobenzyl)sulfonyl)-2-((2-(methylthio)pyrimidin-4-yl)methylene)-2H-benzo[b][1,4]thiazin-3(4H)-one] | > 2500 |  | 2000 | 
6 | O=C1Nc2cc(S(=O)(=O)Cc3c(Cl)cccc3Cl)ccc2S/C1=C\c1c(F)cc(F)cc1F [Compound 31, (Z)-6-((2,6-dichlorobenzyl)sulfonyl)-2-(2,4,6-trifluorobenzylidene)-2H-benzo[b][1,4]thiazin-3(4H)-one] | ≥ 1000 | ≤ 10000 | ≥ 1000 | ≤ 10000
7 | COC(=O)c1ccc(/C=C2\Sc3ccc(S(=O)(=O)Cc4c(Cl)cccc4Cl)cc3NC2=O)c([N+](=O)[O-])c1 [Compound 35, (Z)-methyl 4-((6-((2,6-dichlorobenzyl)sulfonyl)-3-oxo-3,4-dihydro-2H-benzo[b][1,4]thiazin-2-ylidene)methyl)-3-nitrobenzoate] | ≥ 1000 | ≤ 10000 | > 10000 | 
8 | CC(=O)Oc1ccc(/C=C2\Sc3cc(Br)ccc3NC2=O)cc1[N+](=O)[O-] [Compound 3, (Z)-4-((7-bromo-3-oxo-3,4-dihydro-2H-benzo[b][1,4]thiazin-2-ylidene)methyl)-2-nitrophenyl acetate] | ≥ 1000 | ≤ 10000 | ≥ 10000 | ≤ 25000
9 | O=C1Nc2cc(S(=O)(=O)Cc3c(Cl)cccc3Cl)ccc2S/C1=C\c1ccc(Cl)c([N+](=O)[O-])c1 [Compound 29, (Z)-2-(4-chloro-3-nitrobenzylidene)-6-((2,6-dichlorobenzyl)sulfonyl)-2H-benzo[b][1,4]thiazin-3(4H)-one] | ≥ 1000 | ≤ 10000 | ≥ 500 | ≤ 1000
10 | COc1ccc2c(c1)S/C(=C\c1ccc(OC(C)=O)c([N+](=O)[O-])c1)C(=O)N2C(C)=O [Compound 40, (Z)-4-((4-acetyl-7-methoxy-3-oxo-3,4-dihydro-2H-benzo[b][1,4]thiazin-2-ylidene)methyl)-2-nitrophenyl acetate] | 1500 |  | 2000 | 

From patent publication US9242945B2, “Substituted 2-benzylidene-2H-benzo[b][1,4]thiazin-3(4H)-ones, derivatives thereof, and therapeutic uses thereof” (TEMPLE UNIVERSITY—OF THE COMMONWEALTH SYSTEM OF HIGHER …, priority 2011, dated 2016)
